Measured values published in publication PMC6344527, “Toxicity and possible mechanisms of action of honokiol from Magnolia denudata seeds against four mosquito species” (Scientific Reports, 2019).
In brackets after ≈: the same amount, converted by molar mass. Like-named read-outs stand apart in the source and are kept apart here.

What was measured:
[1] = test system: third-instar larvae of insecticide-susceptible Culex pipiens pallens; test: contact mortality bioassay, 24 h exposure; format: in vivo; conditions: for LC50: Culex pipiens, 24 h; for LC50 / LC90 (mg/L) (95% CI) / LC50 (mg/L) (95% CI): 24 h exposure
Procedure: (§1) A contact mortality bioassay[25] was used to evaluate the toxicity of all compounds against third-instar larvae of the four mosquito species. Each test compound in methanol was suspended in DW with Triton X-100 (20 µL/L). Groups of 20 mosquito larvae were separately placed into paper cups (270 mL) containing each compound solution (250 mL). […] Negative controls consisted of a methanol–Triton X-100 solution in DW.
(§2) Treated and control (methanol–Triton X-100 solution only) larvae were maintained under the same conditions as those used for colony maintenance without providing food. Larval mortalities were determined 24 h post-treatment. […] All treatments were performed three times using 20 larvae per replicate.
(§3) The concentration of the test compounds required to produce 50% AChE inhibitory activity (IC50) was determined using the SAS 9.13 program (Cary: SAS Institute; 2014). Concentration-mortality data were subjected to probit analysis using the SAS 9.13 program. […] Statistical analyses were performed using the SAS 9.13 program. Multiple linear regression and correlation analysis were performed using the SPSS 24 program (Armonk: IBM Corp.; 2016).

[2] = test system: third-instar larvae of insecticide-susceptible Aedes aegypti; test: contact mortality bioassay, 24 h exposure; format: in vivo; conditions: for LC50: Aedes aegypti, 24 h; for LC50 / LC90 (mg/L) (95% CI) / LC50 (mg/L) (95% CI): 24 h exposure
Procedure: as §1, §2, §3

[3] = test system: larvae of four mosquito species (Cx. pipiens pallens, Ae. aegypti, Ae. albopictus, and An. sinensis); test: contact mortality bioassay, range over four mosquito species; format: in vivo; conditions: 24 h
Procedure: as §1, §2, §3

[4] = test system: third-instar larvae of insecticide-resistant Anopheles sinensis; test: contact mortality bioassay, 24 h exposure; format: in vivo; conditions: Table 5, larvae resistant to deltamethrin and temephos, 24 h exposure; for LC50: Anopheles sinensis, read-out: LC50 (mg/L) (95% CI); for Slope ± SE: probit slope
Procedure: as §1, §2, §3

[5] = test system: third-instar larvae of insecticide-susceptible Aedes albopictus; test: contact mortality bioassay, 24 h exposure; format: in vivo; conditions: for LC50: Aedes albopictus, read-out: LC50 (mg/L) (95% CI); for LC50 / LC90 (mg/L) (95% CI) / Slope ± SE: Table 4, 24 h exposure; for Slope ± SE: probit slope
Procedure: as §1, §2, §3

[6] = target: acetylcholinesterase (AChE) from third-instar Ae. aegypti larvae (Aedes aegypti, UniProt A4GND7); test: acetylcholinesterase inhibition assay; format: biochemical; conditions: based on IC50 values
Procedure: The in vitro AChE inhibitory activity of the test compounds was assessed according to the method of Perumalsamy et al.[42]. Third-instar Ae. aegypti larvae were used in all experiments. Whole bodies of 50 larvae were homogenized in 1 mL of ice-cold 0.1 M phosphate buffer (pH 8.0) using a glass tissue homogenizer. After filtering through cheesecloth, the homogenate was centrifuged at 1,000 × g at 4 °C for 5 min. The supernatant was used directly as the enzyme source for AChE. The protein levels were determined using the Bradford Protein Assay Kit (Bio-Rad Laboratories, Hercules, CA, USA) using BSA as the standard. The reaction mixture consisted of 50 µL of the crude enzyme preparation (4.3–4.8 µg protein equivalents), 150 µL of 0.1 M phosphate buffer, 20 µL of 3 mM DTNB in phosphate buffer (pH 7.0), and 1 µL of various concentrations of each test compound in ethanol. The reaction mixture was incubated at 30 °C for 5 min, and 20 µL of 32 mM ATChI was then added to the mixture. After incubation for 30 min, the reaction was terminated by adding 20 µL of 5 mM eserine salicylate. Absorbance was recorded at 412 nm using a VersaMax microplate reader (Molecular Devices, Sunnyvale, CA, USA). […] The results are expressed as the means ± standard errors (SEs) of triplicate samples from three independent experiments.
as §3

[7] = test system: mosquito species larvae; conditions: cited from earlier work
[8] = Table 6, structure-activity series, read-out: LC50 (mg/L) (95% CI)
[9] = Table 6, structure-activity series
[10] = Table 7, structure-activity series, read-out: LC50 (mg/L) (95% CI)
[11] = Table 7, structure-activity series
[12] = Table 2, KS-CP strain, read-out: LC50 (mg/L) (95% CI)
[13] = Table 3, read-out: LC50 (mg/L) (95% CI)
[14] = Table 3, listed as Pure linoleic acid
[15] = Table 2, KS-CP strain, listed as Pure palmitic acid
[16] = Table 3, listed as Pure palmitic acid

Chain of acetylcholinesterase (AChE) from third-instar Ae. aegypti larvae (A4GND7 37-679): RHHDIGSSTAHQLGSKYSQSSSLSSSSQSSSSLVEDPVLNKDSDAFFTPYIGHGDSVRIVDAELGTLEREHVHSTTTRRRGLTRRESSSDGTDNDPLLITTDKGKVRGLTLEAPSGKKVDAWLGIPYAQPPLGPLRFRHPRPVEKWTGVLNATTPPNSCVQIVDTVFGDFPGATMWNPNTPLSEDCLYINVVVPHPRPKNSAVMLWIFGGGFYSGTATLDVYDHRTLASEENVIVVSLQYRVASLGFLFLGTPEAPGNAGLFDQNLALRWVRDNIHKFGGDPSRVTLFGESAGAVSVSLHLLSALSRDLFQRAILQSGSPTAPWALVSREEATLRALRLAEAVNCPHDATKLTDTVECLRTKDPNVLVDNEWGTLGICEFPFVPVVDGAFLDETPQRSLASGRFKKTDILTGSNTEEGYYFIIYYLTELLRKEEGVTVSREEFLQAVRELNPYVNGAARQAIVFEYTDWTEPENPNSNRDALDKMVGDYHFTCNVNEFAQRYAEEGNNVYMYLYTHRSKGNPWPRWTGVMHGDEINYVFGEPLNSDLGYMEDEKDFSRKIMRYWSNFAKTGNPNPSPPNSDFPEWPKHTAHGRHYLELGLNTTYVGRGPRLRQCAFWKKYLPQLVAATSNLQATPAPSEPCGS

COc1ccccc1O [Guaiacol, guaiacol]
LC50 [1, 8]: 108 mg/L (≈ 868 µM)
LC90 (mg/L) (95% CI) [1, 9]: 205.6 (176.3–260.9) mg/L
LC50 [2, 10]: 115 mg/L (≈ 930 µM)
LC90 (mg/L) (95% CI) [2, 11]: 223.1 (188.3–292.1) mg/L

CCCCC/C=C\C/C=C\CCCCCCCC(=O)O [Linoleic acid, (9Z,12Z)-9,12-octadecadienoic acid]
LC50 [3]: 6.97 to 7.5 µg/mL (≈ 24.9 to 26.7 µM)
LC50 [4]: 7.5 mg/L (≈ 26.7 µM)
LC90 (mg/L) (95% CI) [4]: 16.04 (14.05–19.06) mg/L
Slope ± SE [4]: 3.9 ± 0.56
LC50 [5]: 7.28 mg/L (≈ 26 µM)
LC90 (mg/L) (95% CI) [5]: 27.81 (20.95–46.02) mg/L
times less toxic than temephos ([5]; from 24 h LC50 values): 552 times
Slope ± SE [5]: 4.4 ± 0.59
LC50 [1, 12]: 6.97 mg/L (≈ 24.9 µM)
LC90 (mg/L) (95% CI) ([1]; Table 2, KS-CP strain, listed as Natural linoleic acid): 19.41 (15.94–26.34) mg/L
LC50 (mg/L) (95% CI) ([1]; Table 2, KS-CP strain, listed as Pure linoleic acid): 8.36 (6.09–10.40) mg/L
times less toxic than temephos ([1]; from 24 h LC50 values): 430 times
LC50 [2, 13]: 7.19 mg/L (≈ 25.6 µM)
LC90 (mg/L) (95% CI) ([2]; Table 3, listed as Natural linoleic acid): 27.04 (20.52–43.96) mg/L
LC50 (mg/L) (95% CI) [2, 14]: 7.34 (5.58–8.92) mg/L
LC90 (mg/L) (95% CI) [2, 14]: 29.70 (23.19–43.79) mg/L
times less toxic than temephos ([2]; from 24 h LC50 values): 575 times

COP(=O)(OC)OC=C(Cl)Cl [Dichlorvos, dichlorvos, reference compound]
LC50 ([1]; read-out: LC50 (mg/L) (95% CI), Table 6, structure-activity series): 0.103 mg/L (≈ 0.466 µM)
LC90 (mg/L) (95% CI) [1, 9]: 0.504 (0.380–0.761) mg/L
LC50 ([2]; read-out: LC50 (mg/L) (95% CI), Table 7, structure-activity series): 0.158 mg/L (≈ 0.715 µM)
LC90 (mg/L) (95% CI) [2, 11]: 0.660 (0.505–0.963) mg/L
AChE inhibitory activity (in words) [6]: did not differ significantly

CC(C)=C1C[C@H]2C(=C(C)CC1=O)CC[C@]2(C)O [neoprocurcumenol]
LC50 ([7]; terpenoids): 13.69 µg/mL (≈ 58.4 µM)

C=CC[C@@]12C=C(OC)C(=O)C=C1O[C@H](c1ccc3c(c1)OCO3)[C@H]2C [burchellin]
LC50 ([7]; neolignans): 15.5 µg/mL (≈ 45.5 µM)

C=CCc1cc(OC)c(O)c(OC)c1 [Methoxyeugenol, methoxyeugenol]
LC50 [1, 8]: 8.4 mg/L (≈ 43.2 µM)
LC90 (mg/L) (95% CI) [1, 9]: 25.52 (20.27–36.92) mg/L
LC50 [2, 10]: 9.15 mg/L (≈ 47.1 µM)
LC90 (mg/L) (95% CI) [2, 11]: 29.46 (22.83–44.88) mg/L
AChE inhibitory activity (in words) [6]: lowest of all of the compounds that were examined

O=C(O)/C=C/c1ccc(O)c(O)c1 [Caffeic acid, caffeic acid]
LC50 [1, 8]: 119 mg/L (≈ 662 µM)
LC90 (mg/L) (95% CI) [1, 9]: 245.6 (208.1–323.3) mg/L
LC50 [2, 10]: 124 mg/L (≈ 691 µM)
LC90 (mg/L) (95% CI) [2, 11]: 235.9 (204.2–296.1) mg/L

C=CCc1ccc(O)c(OC)c1 [Eugenol, eugenol]
LC50 [1, 8]: 74.3 mg/L (≈ 453 µM)
LC90 (mg/L) (95% CI) [1, 9]: 143.3 (127.2–170.3) mg/L
LC50 [2, 10]: 75.8 mg/L (≈ 461 µM)
LC90 (mg/L) (95% CI) [2, 11]: 141.4 (126.3–166.2) mg/L

CC(C)=C1C[C@H]2C(=C(C)C(=O)C1=O)CC[C@]2(C)O [9-oxoneoprocurcumenol]
LC50 ([7]; terpenoids): 5.81 µg/mL (≈ 23.4 µM)

CCCCCCCCCCCCCCCC(=O)O [Palmitic acid, hexadecanoic acid]
LC50 [3]: 32.6 to 47.6 µg/mL (≈ 127 to 186 µM)
LC50 [4]: 47.6 mg/L (≈ 186 µM)
LC90 (mg/L) (95% CI) [4]: 192.8 (148.1–282.2) mg/L
Slope ± SE [4]: 2.1 ± 0.22
LC50 [5]: 36.9 mg/L (≈ 144 µM)
LC90 (mg/L) (95% CI) [5]: 135.1 (104.3–196.9) mg/L
Slope ± SE [5]: 3.1 ± 0.38
LC50 [1, 12]: 32.6 mg/L (≈ 127 µM)
LC90 (mg/L) (95% CI) ([1]; Table 2, KS-CP strain, listed as Natural palmitic acid): 112.3 (88.96–156.2) mg/L
LC50 (mg/L) (95% CI) [1, 15]: 34.92 (29.48–40.76) mg/L
LC90 (mg/L) (95% CI) [1, 15]: 119.3 (94.38–166.4) mg/L
LC50 [2, 13]: 33.5 mg/L (≈ 131 µM)
LC90 (mg/L) (95% CI) ([2]; Table 3, listed as Natural palmitic acid): 129.3 (99.59–189.2) mg/L
LC50 (mg/L) (95% CI) [2, 16]: 36.49 (29.30–44.83) mg/L
LC90 (mg/L) (95% CI) [2, 16]: 204.1 (139.4–378.1) mg/L
LC50 ([7]; flavonoids and fatty acids): 34.50 to 42.96 µg/mL

Oc1ccc(-c2ccc(O)cc2)cc1 [p,p′-Biphenol, p,p′-biphenol]
LC50 [1, 8]: 7.52 mg/L (≈ 40.4 µM)
LC90 (mg/L) (95% CI) [1, 9]: 23.97 (18.97–35.16) mg/L
LC50 [2, 10]: 8.34 mg/L (≈ 44.8 µM)
LC90 (mg/L) (95% CI) [2, 11]: 27.76 (21.50–42.52) mg/L
AChE inhibitory activity (in words) [6]: relatively weak AChE inhibitors
